Assay results reported in ChEMBL document CHEMBL3046127, “Homo- and hetero-dimers of inactive organophosphorous group binding at dual sites of AChE” (Bioorg Med Chem Lett, 2011).

Assays:
Lipaphis erysimi = experiment: Insecticidal activity against Lipaphis erysimi (mustard aphids) assessed as insect mortality at 300 mg/mL; assay type: functional; parameters: dose or concentration left out as unconfirmed; conditions: in Brassica
Tetranychus cinnabarinus = experiment: Insecticidal activity against Tetranychus cinnabarinus (carmine spider mite) assessed as insect mortality at 300 mg/mL; assay type: functional; parameters: dose or concentration left out as unconfirmed
Acetylcholinesterase [1] = biological target: Acetylcholinesterase (Musca domestica, UniProt Q7YWJ9); experiment: Inhibition of acetylcholinesterase in Musca domestica (house fly) brain by Ellman's method
Acetylcholinesterase [2] = biological target: Acetylcholinesterase (Drosophila melanogaster, UniProt P07140); experiment: Inhibition of acetylcholinesterase in Drosophila melanogaster brain by Ellman's method
Sequence of Acetylcholinesterase (Drosophila melanogaster, UniProt P07140) (P07140 whole entry): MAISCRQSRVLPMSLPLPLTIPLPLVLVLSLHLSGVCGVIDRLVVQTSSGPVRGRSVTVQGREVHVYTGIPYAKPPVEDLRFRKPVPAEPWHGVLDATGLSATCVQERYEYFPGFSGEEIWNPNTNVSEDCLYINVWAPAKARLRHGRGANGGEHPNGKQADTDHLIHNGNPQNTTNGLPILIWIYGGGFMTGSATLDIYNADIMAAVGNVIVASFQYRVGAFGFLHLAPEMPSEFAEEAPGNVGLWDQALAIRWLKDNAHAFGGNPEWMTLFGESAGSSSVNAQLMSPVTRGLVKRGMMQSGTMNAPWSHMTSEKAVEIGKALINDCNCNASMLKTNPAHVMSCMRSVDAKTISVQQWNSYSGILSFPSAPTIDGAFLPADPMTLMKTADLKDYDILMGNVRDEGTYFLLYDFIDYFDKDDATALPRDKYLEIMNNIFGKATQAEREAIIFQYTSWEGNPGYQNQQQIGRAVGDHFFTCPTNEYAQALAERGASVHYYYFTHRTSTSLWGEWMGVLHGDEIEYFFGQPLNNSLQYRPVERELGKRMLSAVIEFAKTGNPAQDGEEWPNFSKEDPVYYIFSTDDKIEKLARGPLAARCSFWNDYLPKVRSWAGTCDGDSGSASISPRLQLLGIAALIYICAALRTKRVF

Sequence of Acetylcholinesterase (Musca domestica, UniProt Q7YWJ9) (Q7YWJ9 whole entry): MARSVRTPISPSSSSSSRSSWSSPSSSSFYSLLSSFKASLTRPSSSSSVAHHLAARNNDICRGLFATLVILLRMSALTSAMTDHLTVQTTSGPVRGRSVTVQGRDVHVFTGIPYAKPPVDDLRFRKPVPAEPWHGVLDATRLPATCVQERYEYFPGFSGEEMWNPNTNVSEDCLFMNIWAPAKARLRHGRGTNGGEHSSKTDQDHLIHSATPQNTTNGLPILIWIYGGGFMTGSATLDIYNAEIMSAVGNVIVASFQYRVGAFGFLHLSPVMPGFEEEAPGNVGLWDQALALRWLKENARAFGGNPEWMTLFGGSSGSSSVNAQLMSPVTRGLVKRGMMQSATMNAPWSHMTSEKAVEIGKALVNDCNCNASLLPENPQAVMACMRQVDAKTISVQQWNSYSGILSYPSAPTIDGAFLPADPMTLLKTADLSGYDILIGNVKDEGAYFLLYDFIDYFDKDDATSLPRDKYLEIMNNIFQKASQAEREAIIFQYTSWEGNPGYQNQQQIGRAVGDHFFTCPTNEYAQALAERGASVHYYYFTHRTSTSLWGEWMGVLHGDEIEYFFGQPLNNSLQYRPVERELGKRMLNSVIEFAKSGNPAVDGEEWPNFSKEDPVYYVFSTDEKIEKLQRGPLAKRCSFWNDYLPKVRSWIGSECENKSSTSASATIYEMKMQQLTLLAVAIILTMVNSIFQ

Compound | mortality (Lipaphis erysimi) | mortality (Tetranychus cinnabarinus) | IC50 (Acetylcholinesterase [1]) | IC50 (Acetylcholinesterase [2])
CCOP(=O)(OCC)SCCCCCCCSP(=O)(OCC)OCC | 97.3% | 83.3% | 2100 µM | 10.2 µM
CCOP(=O)(OCC)SCCCCCN1C(=O)c2ccccc2C1=O | 96.5% | 81.2% | 114 µM | 12.3 µM
CCOP(=O)(OCC)SCCCCN1C(=O)c2ccccc2C1=O | 97.7% | 88.9% | 25.8 µM | 9.92 µM
CCOP(=O)(OCC)SCCCCCCN1C(=O)c2ccccc2C1=O | 100% | 87.3% | 9.42 µM | 3.81 µM
CCOP(=O)(OCC)SCCCCCCCCCN1C(=O)c2ccccc2C1=O | 88.3% | 77.6% | 267 µM | 37.5 µM
CCOP(=S)(OCC)Oc1nc(Cl)c(Cl)cc1Cl [CHLORPYRIFOS] | 100% | 71.1% | 9.51 µM | 1.83 µM
CCOP(=O)(OCC)SCCCCCSP(=O)(OCC)OCC | 42.6% | 85.7% | 4600 µM | 12.3 µM
CCOP(=O)(OCC)SCCCCCCCCCCSP(=O)(OCC)OCC | 96.6% | 93.3% | 224 µM | 1.76 µM
CCOP(=O)(OCC)SCCCCCCCCCCN1C(=O)c2ccccc2C1=O | 92.8% | 92.2% | 80.9 µM | 113 µM
CCOP(=O)(OCC)SCCCN1C(=O)c2ccccc2C1=O | 97.8% | 92.9% | 155 µM | 8.29 µM
CCOP(=O)(OCC)SCCCCCCCCSP(=O)(OCC)OCC | 97.5% | 87.7% | 331 µM | 4.84 µM
CCOP(O)(=S)OCC [O,O-DIETHYL S-HYDROGEN PHOSPHOROTHIOATE] |  |  | > 25000 µM | > 40000 µM
CCOP(=O)(OCC)SCCCCCCCN1C(=O)c2ccccc2C1=O | 88% | 89.3% | 2.08 µM | 1.84 µM
CCOP(=O)(OCC)SCCCCCCCCN1C(=O)c2ccccc2C1=O | 62.5% | 85% | 13.8 µM | 4.5 µM
CCOP(=O)(OCC)SCCCCCCSP(=O)(OCC)OCC | 95.4% | 92.4% | 8.9 µM | 0.87 µM
CCOP(=O)(OCC)SCCCCCCCCCSP(=O)(OCC)OCC | 100% | 78.6% | 197 µM | 1.43 µM
CCOP(=O)(OCC)SCCCCSP(=O)(OCC)OCC | 89.4% | 82% | 107 µM | 8.07 µM
CCOP(=O)(OCC)SCCCSP(=O)(OCC)OCC | 90.8% | 98.4% | 32.4 µM | 1.64 µM
